We go through 1 compound from patent US12502379B2, “Ponesimod for avoiding worsening of fatigue-related symptoms in multiple sclerosis patients” (Vanda Pharmaceuticals Inc., priority 2019, dated 2025).

The subject of data set [1] is adult subjects with relapsing MS. Briefly: FSIQ-RMS weekly symptoms score, change from baseline to Week 108. Format: in vivo, human. The source says: In some embodiments, the patient-reported outcome questionnaire is the Fatigue Symptoms and Impact Questionnaire—Relapsing Multiple Sclerosis (FSIQ-RMS) (available from Mapi Research Trust). The FSIQ-RMS is an MS specific 20-item PRO measure that comprises 2 domains: one measuring MS symptoms and one measuring MS-related impacts. See Hudgens S, et al., Development and Validation of the FSIQ-RMS: A New Patient-Reported Questionnaire to Assess Symptoms and Impacts of Fatigue in Relapsing Multiple Sclerosis. Value Health. 2019 April; 22 (4): 453-466. doi: 10.1016/j.jval.2018.11.007. Epub 2019 Feb. 21. PubMed PMID: 30975397. With 7 symptom items and 13 impact items (in 3 impacts subdomains: physical, cognitive and emotional, and coping), the FSIQ-RMS is a comprehensive, valid, and reliable measure of fatigue-related symptoms and impacts in RMS patients. FIG. 2B depicts a conceptual framework for the FSIQ-RMS.
In some embodiments, the patient-reported outcome questionnaire is the symptom domain of the FSIQ-RMS. The FSIQ-RMS symptom domain (FSIQ-RMS-S) consists of seven items assessing fatigue-related symptoms with a recall period of 24 hours measured on an 11-point numeric rating scale; the standardized symptom domain score ranges from 0 to 100 with a higher score indicating greater fatigue. This domain (i.e., section 1 of the questionnaire) is completed on 7 consecutive days.
The patient-reported outcome questionnaire used for the below Examples is the Fatigue Symptoms and Impact Questionnaire-Relapsing Multiple Sclerosis (FSIQ-RMS). The FSIQ-RMS is an MS specific 20-item PRO measure that comprises 2 domains: one measuring MS symptoms (7 items) and one measuring MS-related impacts (13 items). The 7 symptom items and 13 impact items (in 3 impacts subdomains: physical, cognitive and emotional, and coping) are presented below.
For the MS symptoms domain, the FSIQ-RMS asks about a patient's fatigue-related symptoms of relapsing MS over the past 24 hours while doing routine daily activities (e.g., housework, yard work, shopping, working, etc.) for Items 1-6 or while at rest (e.g., reading a book, watching TV, etc.) for Item 7. Patients are asked to select a response on a scale of Oto 10 that best describes their experience and are asked to not skip any questions, with no answers being right or wrong.
Secondary efficacy variables and testing strategy: Four secondary efficacy endpoints were analyzed as per the statistical testing strategy outlined in FIG. 1. • Change from baseline to Week 108 in fatigue-related symptoms as measured by the symptoms domain of the FSIQ-RMS patient-reported outcome [Fatigue] • Cumulative number of combined unique active lesions from baseline to Week 108 on brain MRI [CUALs] • Time to first 12-week confirmed disability accumulation (CDA) from baseline to EOS on Expanded Disability Status Scale (EDSS) [12-week CDA] • Time to first 24-week CDA from baseline to EOS on EDSS [24-week CDA]
The FSIQ-RMS symptom domain (FSIQ-RMS-S) consists of seven items assessing fatigue-related symptoms with a recall period of 24 hours measured on an 11-point numeric rating scale; the standardized symptom domain score ranges from 0 to 100 with a higher score indicating greater fatigue. This domain (i.e., section 1 of the questionnaire) is completed on 7 consecutive days.
FSIQ-RMS was completed during the pre-randomization period, at Visits 6, 7, 10, and 12 (Weeks 12, 24, 60, 84), 14 (EOT), and at unscheduled visits due to relapses (R1, R2, etc.) or other unscheduled visits (U1, U2, etc.) as described below. If applicable, FSIQ-RMS was performed at the corresponding visits in the PTOP.
The completion of the FSIQ-RMS during the pre-randomization period was done as follows: At Visit 1 (Screening), subjects who appear eligible based on the assessments made during this visit (but prior to the results from the laboratory assessments are received) were provided with the electronic device containing the FSIQ-RMS. […]

A short description of data set [2]: Reasons for premature treatment discontinuation. Format: in vivo. Here is the method:
A total of 1468 subjects were screened. Of those, 1133 subjects were randomized (567 to ponesimod 20 mg and 566 to teriflunomide 14 mg) across 162 sites in 28 countries, and 1131 subjects received at least one dose of study drug. The disposition of subjects is summarized in Table 1 and a summary of reasons (primary reason) for treatment discontinuation are shown in Table 2. Overall treatment and study discontinuation were balanced across both treatment arms. A total of 6.5% and 2.5% of the subjects discontinued due to AEs or tolerability related reasons in ponesimod 20 mg and teriflunomide 14 mg, respectively, while 1.9% and 4.3% discontinued due to efficacy related reasons. There were 2 deaths reported during the study—both on teriflunomide 14 mg.

The subject of data set [3] is Patients (18-55 years) with RMS. Put plainly: No evidence of disease activity (NEDA-3) status. The class given is in vivo, human. The conditions noted are these: PON 20 mg vs TER 14 mg; week 108. How it is done: In this study, prespecified MRI-based endpoints and no evidence of disease activity (NEDA) status is evaluated.
Patients (18-55 years) with RMS (expanded disability status scale scores: 0-5.5) were randomized (1:1) to receive ponesimod (PON) 20 mg or teriflunomide (TER) 14 mg for 108 weeks. MRI assessments were: volume of T2 lesions; mean number of new gadolinium-enhancing (Gd+) T1 lesions and new/enlarging T2 lesions; and absence of active MRI lesions at week 108. NEDA-3 status (absence of confirmed relapse, Gd+T1 lesions and new/enlarging T2 lesions on annual MRIs, and 12-week confirmed disability accumulation) was evaluated from baseline to week 108.

The nature of data set [4]: 12-lead ECG heart rate on Day 1, change from pre-dose. The class given is in vivo, human. Here is the method: As per up-titration regimen, the dose of ponesimod on Day 1 is 2 mg.
The mark [5] stands for this setting: patients with no prior DMT treatment within about two years, FSIQ-RMS weekly symptoms score.
Setting [6] is: patients without Gd+T1 lesions at baseline, FSIQ-RMS weekly symptoms score.

For `CCC/N=C1\S/C(=C\c2ccc(OC[C@H](O)CO)c(Cl)c2)C(=O)N1c1ccccc1C` [Ponesimod, (R)-5-[3-chloro-4-(2,3-dihydroxy-propoxy)-benz[Z]ylidene]-2-([Z]-propylimino)-3-o-tolyl-thiazolidin-4-one], the “Change from baseline to Week 108 in FSIQ-RMS weekly symptoms score (mean)” value in data set [1] (MMRM, Full Analysis Set, increase = worsening, ponesimod 20 mg, teriflunomide 14 mg) is reported as −0.01. Further, the “Change From Baseline to Week 108: Stable or Improved” value in data set [1] (patients with baseline fatigue below the median, FSIQ-RMS weekly symptoms score) is approximately 65%. Further, in data set [1] (setting [5]), the “Change From Baseline to Week 108: Stable (−6.3 < x < +6.3)” value worked out at 44.0% and the “Change From Baseline to Week 108: Stable or Improved” value is listed as “about 75%”. Besides, in data set [1] (setting [6]), the “Change From Baseline to Week 108: Improved (<−6.3)” value worked out at 30.0% and the “Change From Baseline to Week 108: Stable or Improved” value is “about 68%”. Moreover, the “Premature treatment discontinuation: Death” value in data set [2] (Safety Set, ponesimod 20 mg N = 565, teriflunomide 14 mg N = 566) is reported as 0 n. In addition, the “Subjects who discontinued due to AEs or tolerability related reasons” value in data set [2] (ponesimod 20 mg, teriflunomide 14 mg) turned out to be 6.5%. For the same compound, in data set [3], the “NEDA-3, odds ratio (OR)” value came out at 1.70. For the same compound, the “Mean heart rate reduction compared to pre-dose (maximum)” value in data set [4] (Day 1, 2-hours post dose, ponesimod arm dose on Day 1 is 2 mg) is given as −8.7 bpm. In addition, in data set [4] (Day 1, first dose (ponesimod 2 mg per up-titration)), the “ECG HR effect: time of nadir / maximum mean heart rate reduction post-dose” value came to 2 h. In data set [4] (Day 1, all had pre-treatment HR<55 bpm), the “Subjects with asymptomatic post-dose HR≤40 bpm” value is 3.
